The values that follow come from patent US11746087B1, “C4-carboxylic acid-substituted tryptamine derivatives and methods of using” (priority 2022, dated 2023).

A value given as a limit tells only on which side of the number the result lay.

For one assay, the target named is T1, HTR1A (5-HT1A) (Homo sapiens, UniProt P08908).
T1 sequence (P08908 1-422): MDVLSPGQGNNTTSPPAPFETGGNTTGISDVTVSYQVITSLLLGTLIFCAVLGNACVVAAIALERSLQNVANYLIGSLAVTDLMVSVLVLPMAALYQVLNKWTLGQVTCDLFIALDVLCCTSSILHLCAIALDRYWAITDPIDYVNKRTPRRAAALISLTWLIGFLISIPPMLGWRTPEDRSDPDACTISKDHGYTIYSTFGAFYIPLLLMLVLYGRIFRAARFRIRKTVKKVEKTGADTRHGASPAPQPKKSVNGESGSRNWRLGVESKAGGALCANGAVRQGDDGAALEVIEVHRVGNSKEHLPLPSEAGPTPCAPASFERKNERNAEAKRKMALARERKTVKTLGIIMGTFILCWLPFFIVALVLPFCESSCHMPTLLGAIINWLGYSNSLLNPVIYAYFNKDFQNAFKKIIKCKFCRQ
The assay is described as follows: EFC-based cAMP secondary messenger assay, antagonist mode. Format: cell-based.

In the next assay the target is T2, 5-HT1A receptor (Homo sapiens, UniProt P08908).
T2 construct: host or cells: CHO-K1 (co-expressing Ga15)
T2 sequence (P08908 1-422): T1 sequence (P08908 1-422)
In words: cAMP-Glo assay in +5-HT1A vs −5-HT1A CHO-K1 cells. Format: cell-based. The settings on record: cAMP assay with 4 mM forskolin.

The target of a further assay is T3, HTR3A (5-HT3A) (Homo sapiens, UniProt P46098).
T3 sequence (P46098 24-478): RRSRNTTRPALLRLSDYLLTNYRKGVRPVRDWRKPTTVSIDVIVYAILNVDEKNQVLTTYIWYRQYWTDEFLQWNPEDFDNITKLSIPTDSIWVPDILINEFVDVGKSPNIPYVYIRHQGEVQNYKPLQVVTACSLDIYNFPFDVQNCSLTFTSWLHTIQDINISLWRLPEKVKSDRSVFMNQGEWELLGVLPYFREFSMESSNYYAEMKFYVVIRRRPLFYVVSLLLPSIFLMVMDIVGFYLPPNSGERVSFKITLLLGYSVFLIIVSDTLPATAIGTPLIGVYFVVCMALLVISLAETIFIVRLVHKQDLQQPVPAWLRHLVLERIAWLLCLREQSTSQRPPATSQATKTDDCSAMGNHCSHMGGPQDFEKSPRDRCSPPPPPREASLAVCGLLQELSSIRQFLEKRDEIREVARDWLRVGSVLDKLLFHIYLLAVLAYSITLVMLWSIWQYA
In words: Ion channel assay (FLIPR membrane potential), blocker. The class given is cell-based.

The target in the next assay is HTR2B (5-HT2B) (Homo sapiens, UniProt P41595). In words: Calcium secondary messenger assay, antagonist mode. Format: cell-based.
The target of the next assay is NET (Homo sapiens, UniProt P23975). In words: Neurotransmitter transporter uptake assay, blocker. Format: cell-based.
Another assay has as its target T4, CHRM2 (Homo sapiens, UniProt P08172).
T4 sequence (P08172 1-466): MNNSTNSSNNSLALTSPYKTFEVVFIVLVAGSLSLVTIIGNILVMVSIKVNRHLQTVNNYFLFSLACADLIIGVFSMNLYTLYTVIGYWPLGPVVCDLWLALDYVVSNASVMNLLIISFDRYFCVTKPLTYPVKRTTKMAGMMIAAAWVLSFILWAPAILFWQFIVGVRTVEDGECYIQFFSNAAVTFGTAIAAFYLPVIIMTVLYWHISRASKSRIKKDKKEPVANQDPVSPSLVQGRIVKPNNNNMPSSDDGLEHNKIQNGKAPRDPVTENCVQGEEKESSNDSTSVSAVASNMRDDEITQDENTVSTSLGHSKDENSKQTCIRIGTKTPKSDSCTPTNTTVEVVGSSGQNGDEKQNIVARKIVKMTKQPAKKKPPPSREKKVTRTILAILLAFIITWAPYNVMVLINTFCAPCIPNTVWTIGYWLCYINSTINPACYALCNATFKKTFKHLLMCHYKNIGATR
In words: EFC-based cAMP secondary messenger assay, antagonist mode. The class given is cell-based.

A further assay deals with T5, 5-HT2A receptor (Mus musculus, UniProt P35363).
T5 construct: 8-week old C57BL/6-Elite male and female mice were obtained from Charles River; tissue Charles River; host or cells: living C57BL/6-Elite mice (neuronal receptor, in vivo)
In words: Drug-induced Head Twitch Response (HTR). The class given is in vivo. The settings on record: C57BL/6 mice; 1 mg/kg i.p.; 15-to-30-minute window after administration.

Another assay concerns the target CNR1 (Homo sapiens, UniProt P21554). The assay is described as follows: EFC-based cAMP secondary messenger assay, agonist mode. Format: cell-based.
The next assay concerns the target T6, MAO-A (Homo sapiens, UniProt P21397).
T6 construct: purchased Sigma
T6 sequence (P21397 1-527): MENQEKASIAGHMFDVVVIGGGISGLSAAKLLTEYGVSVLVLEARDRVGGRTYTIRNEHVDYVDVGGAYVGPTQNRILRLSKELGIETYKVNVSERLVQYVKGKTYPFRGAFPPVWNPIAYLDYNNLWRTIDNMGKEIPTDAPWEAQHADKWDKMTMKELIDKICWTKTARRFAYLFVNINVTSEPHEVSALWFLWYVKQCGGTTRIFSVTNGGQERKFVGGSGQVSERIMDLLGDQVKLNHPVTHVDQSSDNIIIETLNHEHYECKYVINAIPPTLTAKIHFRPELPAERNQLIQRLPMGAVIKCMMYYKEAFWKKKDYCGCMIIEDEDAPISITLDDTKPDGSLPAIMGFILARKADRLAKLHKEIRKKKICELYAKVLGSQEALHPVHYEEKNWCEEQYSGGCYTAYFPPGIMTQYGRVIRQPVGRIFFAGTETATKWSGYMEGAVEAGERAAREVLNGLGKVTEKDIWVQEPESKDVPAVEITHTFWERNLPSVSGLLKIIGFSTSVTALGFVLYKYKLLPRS
The assay is described as follows: MAO-A enzyme assay (kynuramine). Format: biochemical.

The target in assay [1] is T7, CHRM1 (Homo sapiens, UniProt P11229).
T7 sequence (P11229 1-460): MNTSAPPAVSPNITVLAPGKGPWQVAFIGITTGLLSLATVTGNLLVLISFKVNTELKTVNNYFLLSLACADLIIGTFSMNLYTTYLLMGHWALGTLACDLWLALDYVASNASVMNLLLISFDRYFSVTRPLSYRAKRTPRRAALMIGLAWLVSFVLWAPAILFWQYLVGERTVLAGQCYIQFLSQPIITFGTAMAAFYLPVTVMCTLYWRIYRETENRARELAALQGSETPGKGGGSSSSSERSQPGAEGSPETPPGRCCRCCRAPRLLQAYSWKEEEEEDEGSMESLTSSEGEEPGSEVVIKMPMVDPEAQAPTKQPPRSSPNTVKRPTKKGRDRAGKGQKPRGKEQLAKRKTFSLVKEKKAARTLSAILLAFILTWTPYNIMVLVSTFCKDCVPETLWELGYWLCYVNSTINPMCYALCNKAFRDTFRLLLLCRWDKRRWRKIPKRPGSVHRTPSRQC
The assay is described as follows: cell-based.

The target of assay [2] is T7, CHRM1. The assay is described as follows: Calcium secondary messenger assay, agonist mode. Format: cell-based.

Chain of NET (P23975 whole entry): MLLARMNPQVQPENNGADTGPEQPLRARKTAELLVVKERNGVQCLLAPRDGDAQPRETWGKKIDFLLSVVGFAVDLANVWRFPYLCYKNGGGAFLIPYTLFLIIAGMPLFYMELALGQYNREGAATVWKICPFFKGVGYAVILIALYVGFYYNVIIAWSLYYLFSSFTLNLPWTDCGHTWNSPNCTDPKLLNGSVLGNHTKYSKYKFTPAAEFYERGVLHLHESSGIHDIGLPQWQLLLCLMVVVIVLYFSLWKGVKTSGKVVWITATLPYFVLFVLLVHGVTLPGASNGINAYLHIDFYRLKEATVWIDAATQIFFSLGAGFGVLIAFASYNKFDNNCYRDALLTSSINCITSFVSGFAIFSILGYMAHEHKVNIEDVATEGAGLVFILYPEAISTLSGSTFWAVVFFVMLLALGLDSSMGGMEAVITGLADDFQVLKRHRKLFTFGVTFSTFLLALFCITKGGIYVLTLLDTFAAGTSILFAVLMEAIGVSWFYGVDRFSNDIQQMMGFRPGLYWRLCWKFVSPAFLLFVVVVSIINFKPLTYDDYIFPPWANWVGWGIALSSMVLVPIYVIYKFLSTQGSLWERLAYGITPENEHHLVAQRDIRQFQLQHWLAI
Chain of HTR2B (5-HT2B) (P41595 whole entry): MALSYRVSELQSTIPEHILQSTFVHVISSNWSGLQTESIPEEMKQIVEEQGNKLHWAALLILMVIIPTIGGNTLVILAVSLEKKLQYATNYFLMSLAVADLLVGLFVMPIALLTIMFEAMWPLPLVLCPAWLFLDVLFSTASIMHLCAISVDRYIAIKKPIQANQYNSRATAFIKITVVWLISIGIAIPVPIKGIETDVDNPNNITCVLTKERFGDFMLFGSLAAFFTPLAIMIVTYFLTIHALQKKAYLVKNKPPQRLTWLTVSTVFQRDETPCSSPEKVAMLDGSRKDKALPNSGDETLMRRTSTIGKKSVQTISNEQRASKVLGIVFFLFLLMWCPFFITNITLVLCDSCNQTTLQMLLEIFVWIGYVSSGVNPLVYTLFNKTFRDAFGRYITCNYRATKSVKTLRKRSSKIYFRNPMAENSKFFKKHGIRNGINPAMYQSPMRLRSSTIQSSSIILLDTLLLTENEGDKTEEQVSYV
Chain of CNR1 (P21554 whole entry): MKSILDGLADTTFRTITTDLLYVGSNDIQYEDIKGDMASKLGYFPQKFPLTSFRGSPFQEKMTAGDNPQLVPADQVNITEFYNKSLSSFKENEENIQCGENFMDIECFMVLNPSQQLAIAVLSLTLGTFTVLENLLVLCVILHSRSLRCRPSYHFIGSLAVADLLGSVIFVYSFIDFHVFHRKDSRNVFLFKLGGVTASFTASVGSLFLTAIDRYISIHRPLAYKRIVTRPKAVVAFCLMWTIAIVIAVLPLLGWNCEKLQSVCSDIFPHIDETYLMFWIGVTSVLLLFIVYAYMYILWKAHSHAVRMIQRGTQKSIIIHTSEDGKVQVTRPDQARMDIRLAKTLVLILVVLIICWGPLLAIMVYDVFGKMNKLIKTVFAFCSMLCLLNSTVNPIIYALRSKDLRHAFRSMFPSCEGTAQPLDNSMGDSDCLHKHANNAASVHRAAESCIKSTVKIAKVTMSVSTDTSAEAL
T5 sequence (P35363 whole entry): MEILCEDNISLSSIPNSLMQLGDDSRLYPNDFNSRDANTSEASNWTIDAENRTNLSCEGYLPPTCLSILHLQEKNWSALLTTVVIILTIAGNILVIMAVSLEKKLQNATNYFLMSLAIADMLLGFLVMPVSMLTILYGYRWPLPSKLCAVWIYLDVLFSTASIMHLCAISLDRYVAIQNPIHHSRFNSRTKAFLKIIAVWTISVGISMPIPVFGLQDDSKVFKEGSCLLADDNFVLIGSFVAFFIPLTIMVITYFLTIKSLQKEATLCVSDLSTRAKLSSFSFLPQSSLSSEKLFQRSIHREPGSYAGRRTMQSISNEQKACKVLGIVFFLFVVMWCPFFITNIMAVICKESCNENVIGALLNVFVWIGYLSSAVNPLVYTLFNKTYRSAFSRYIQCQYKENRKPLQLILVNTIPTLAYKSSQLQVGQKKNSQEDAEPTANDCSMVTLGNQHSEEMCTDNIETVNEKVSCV

`CN(C)CCc1c[nH]c2cccc(OC(=O)c3ccc(Br)cc3)c12` [C(I)]: the IC50 against HTR1A (5-HT1A) was over 100 µM; against HTR3A (5-HT3A), 7.52 µM; at HTR2B (5-HT2B), 4.94 µM; on NET, 47 µM; against CHRM2, 48.9 µM; at MAO-A it was over 100 µM. The molecule further displayed an IC50 at CHRM1 [1] (CHRM1, GPCR, ANT (antagonist)) of 22.9 µM. The “5-HT1A receptor modulation, +5-HT1A vs −5-HT1A cultures” value at 5-HT1A receptor is “mild receptor modulation at higher ligand concentrations”. For the same molecule, the “Head Twitch Response (HTR) incidence relative to vehicle” value on 5-HT2A receptor is “Elevated incidences of HTR”. Moreover, the EC50 on CNR1 was 54.2 µM; at CHRM1 [2] it was over 100 µM.

In the case of `CN(C)CCc1c[nH]c2cccc(OC(=O)CC3CC3)c12` [C(IV)], the IC50 against HTR1A (5-HT1A) is over 100 µM; on HTR3A (5-HT3A) it was 76.7 µM; at HTR2B (5-HT2B), 0.059 µM; on NET, over 100 µM; against CHRM2, over 100 µM; against MAO-A, 34.4 µM. The molecule further had an IC50 at CHRM1 [1] (CHRM1, GPCR, ANT (antagonist)) of over 100 µM. Besides, on 5-HT1A receptor, the “5-HT1A receptor modulation, +5-HT1A vs −5-HT1A cultures” value is “significant receptor modulation”. Also, the “Head Twitch Response (HTR) incidence relative to vehicle” value at 5-HT2A receptor is listed as “Elevated incidences of HTR”. Further, the EC50 on CNR1 and on CHRM1 [2] was over 100 µM in each case.

With `COc1ccc(C(=O)Oc2cccc3[nH]cc(CCN(C)C)c23)cc1` [C(V)], the IC50 against HTR1A (5-HT1A) is over 100 µM; against HTR3A (5-HT3A), 33.9 µM; at HTR2B (5-HT2B), 0.012 µM; on NET, over 100 µM; at CHRM2, over 100 µM; at MAO-A, 76 µM. For the same molecule, the IC50 at CHRM1 [1] (CHRM1, GPCR, antagonist (ANT)) is over 100 µM. For the same molecule, the “5-HT1A receptor modulation, +5-HT1A vs −5-HT1A cultures” value on 5-HT1A receptor is reported as “mild receptor modulation at higher ligand concentrations”. The “Head Twitch Response (HTR) incidence relative to vehicle” value on 5-HT2A receptor is recorded as “Elevated incidences of HTR”. The EC50 on CNR1 and at CHRM1 [2] was over 100 µM throughout.

Regarding `CN(C)CCc1c[nH]c2cccc(OC(=O)c3c(F)c(F)c(F)c(F)c3F)c12` [C(VI)], the IC50 is over 100 µM against HTR1A (5-HT1A); 55.1 µM against HTR3A (5-HT3A); 0.03 µM on HTR2B (5-HT2B); over 100 µM against NET; over 100 µM against CHRM2; 20.7 µM against MAO-A. The IC50 at CHRM1 [1] (CHRM1, GPCR, ANT (antagonist)) was over 100 µM. Besides, on 5-HT1A receptor, the “5-HT1A receptor modulation, +5-HT1A vs −5-HT1A cultures” value is “no receptor modulation at higher ligand concentrations”. The “Head Twitch Response (HTR) incidence relative to vehicle” value at 5-HT2A receptor is recorded as “Elevated incidences of HTR”. For the same molecule, the EC50 is 62.9 µM at CNR1 and over 100 µM on CHRM1 [2].

`CN(C)CCc1c[nH]c2cccc(OC(=O)c3cccc4c3OCCO4)c12` [C(XX)]: the IC50 was over 100 µM against HTR1A (5-HT1A); 3.77 µM at HTR3A (5-HT3A); 0.016 µM at HTR2B (5-HT2B); 15 µM against NET; over 100 µM against CHRM2; over 100 µM on MAO-A. The same molecule registered an IC50 against CHRM1 [1] (CHRM1, GPCR, ANT (antagonist)) of over 100 µM. For the same molecule, the “5-HT1A receptor modulation, +5-HT1A vs −5-HT1A cultures” value at 5-HT1A receptor was “significant receptor modulation”. For the same molecule, the “Head Twitch Response (HTR) incidence relative to vehicle” value on 5-HT2A receptor is reported as “Elevated incidences of HTR”. For the same molecule, the EC50 on CNR1 and at CHRM1 [2] was over 100 µM in each case.

A word on the IC50: it is the concentration that gives 50% inhibition. The EC50 is the concentration at which the effect is half-maximal.
